The target in the assay is T1, MR (Homo sapiens, UniProt P08235).
T1 construct: expressed in transfected cells; host or cells: Huh7 human liver cells, transient transfection
T1 sequence (P08235 726-964 limits assumed): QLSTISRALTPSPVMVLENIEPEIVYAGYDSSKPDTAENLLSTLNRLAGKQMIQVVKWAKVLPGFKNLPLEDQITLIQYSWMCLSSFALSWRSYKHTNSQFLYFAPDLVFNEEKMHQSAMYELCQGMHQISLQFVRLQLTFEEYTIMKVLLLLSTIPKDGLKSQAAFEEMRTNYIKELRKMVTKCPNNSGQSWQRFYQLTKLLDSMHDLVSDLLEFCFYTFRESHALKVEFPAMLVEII
The experiment in a line: Cell-Based Reporter Assay (Gal4 DBD-MR LBD luciferase reporter, antagonist mode).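 Further: cells co-transfected with a Gal4 response element luciferase plasmid, compound exposure overnight before lysis and luminescence counting, IC50 reflects reduced aldosterone-stimulated reporter signal.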 The following applies: antagonist mode vs aldosterone at EC80; transfected human liver cells (Huh7); luciferase readout; Examples 3, 6, 12 and 13 tested in analogous format with minor variations. A general note: In a reporter assay the amount or activity of a reporter protein is the signal.
`COc1cc(C2=NN(c3ccc(C#N)c(C)n3)[C@@H](C3CCCC3)C2)ccc1CC(=O)O` [Example 54, (R)-2-(4-(1-(5-cyano-6-methylpyridin-2-yl)-5-cyclopentyl-4,5-dihydro-1H-pyrazol-3-yl)-2-methoxyphenyl)acetic acid] yielded an IC50 of 95.7 nM.

Turning to `CCOc1nc(C2=NN(c3ccc(C#N)c(C)c3)[C@@H](C3CCCC3)C2)ccc1C(N)=O` [Example 55, (R)-6-(1-(4-cyano-3-methylphenyl)-5-cyclopentyl-4,5-dihydro-1H-pyrazol-3-yl)-2-ethoxynicotinamide], the IC50 is 3.9 nM. As for `Cc1cc(C2=NN(c3ccc(C#N)c(C)n3)[C@@H](C3CCCC3)C2)cc(C)c1O` [Example 57, (R)-6-(5-cyclopentyl-3-(4-hydroxy-3,5-dimethylphenyl)-4,5-dihydro-1H-pyrazol-1-yl)-2-methylnicotinonitrile], the figure is 503 nM. As for `Cc1nc(N2N=C(c3cc(F)c(O)c(F)c3)C[C@@H]2C2CCCC2)ccc1C#N` [Example 61, (R)-6-(5-cyclopentyl-3-(3,5-difluoro-4-hydroxyphenyl)-4,5-dihydropyrazol-1-yl)-2-methylnicotinonitrile], the figure is 208 nM; as for `Cc1nc(N2N=C(c3ccc(O)c(F)c3)C[C@@H]2C2CCCC2)ccc1C#N` [Example 62, (R)-6-(5-cyclopentyl-3-(3-fluoro-4-hydroxyphenyl)-4,5-dihydropyrazol-1-yl)-2-methylnicotinonitrile], 92.3 nM; as for `Cc1nc(N2N=C(c3ccc4c(c3)C(C)(C)OC(=O)N4)C[C@@H]2C2CCCC2)ccc1C#N` [Example 64, (R)-6-(5-cyclopentyl-3-(4,4-dimethyl-2-oxo-2,4-dihydro-1H-benzo[d][1,3]oxazin-6-yl)-4,5-dihydro-1H-pyrazol-1-yl)-2-methylnicotinonitrile], 10 nM. As for `CC(=O)Nc1cccc(C2=NN(c3ccc(C#N)c(C)n3)[C@@H](C3CCCC3)C2)n1` [Example 66, (R)—N-(6-(1-(5-cyano-6-methylpyridin-2-yl)-5-cyclopentyl-4,5-dihydro-1H-pyrazol-3-yl)pyridin-2-yl)acetamide], the figure is 255 nM; as for `Cc1nc(N2N=C(c3cccc(OC(C)C)n3)C[C@@H]2C2CCCC2)ccc1C#N` [Example 67, (R)-6-(5-cyclopentyl-3-(6-isopropoxypyridin-2-yl)-4,5-dihydro-1H-pyrazol-1-yl)-2-methylnicotinonitrile], 170 nM. Take `COc1nc(C2=NN(c3ccc(C#N)c(C)c3)C(C3CC(F)(F)C3)C2)ccc1C(=O)O` (stereo not drawn) [Example 70, 6-(1-(4-cyano-3-methylphenyl)-5-(3,3-difluorocyclobutyl)-4,5-dihydro-1H-pyrazol-3-yl)-2-methoxynicotinic acid]: the half-maximal inhibitory concentration (IC50) came to 147 nM.

As usually defined, the IC50 is the concentration that inhibits the measured activity by half. Lower therefore signals greater potency in that assay.

For the origin of these results see US20120022058A1, “4,5-DIHYDRO-1H-PYRAZOLE COMPOUNDS AND THEIR PHARMACEUTICAL USES” (Pfizer Inc., priority 2009, published 2012).
